Reference: patent US12685739B2, “Compositions and methods for treating lung injury” (University of Maryland, Baltimore, priority 2020, dated 2026)

Columns and labels:
[1] = tested on: rat model of ARDS plus MV; experiment: rat model of ARDS (intratracheal HCl) plus mechanical ventilation; assay type: in vivo
Method: In other cases, a rat model of ARDS was used in which acute lung injury is induced by acid instillation, followed by mechanical ventilation. […] In a second experiment, a conventional rat model of ARDS plus MV was used. Rats were anesthetized and intubated. […] After inducing ALI, rats received MV for 4 hours, as above, except that VT=8 mL/kg. Rats were euthanized at 24 hours. […] MV (VT=8 mL/kg) was continued for 4 hours, following which rats were extubated, recovered from anesthesia and returned to their home cages. Lung function was evaluated at 24 hours. Rats were re-anesthetized. […] Rats were then re-intubated for MV. […] In a subgroup of rats, after completing the 24-hour lung function assessments, rats were euthanized, and the lungs were […] using 5 mL normal saline to obtain bronchioalveolar lavage fluid (BALF). BALF was analyzed for protein.

human neutrophils = experiment: MRP8/14 exocytosis from activated human neutrophils, ELISA; assay type: cell-based; design: dose or concentration left out as unconfirmed; conditions: co-incubation with glibenclamide, n=6
Method: FIG. 9. […] Exocytosis of MRP8/14 from human neutrophils using ELISA was studied. […] Co-immunoprecipitation experiments were performed to determine whether SUR1 and MRP8/14 physically co-associate.

[2] = tested on: LPS-induced mouse model of ARDS; experiment: LPS-induced mouse model of ARDS; assay type: in vivo; conditions: 10 μg IP 2 hours after LPS and again 5 hours later, 24 hours after LPS, vs vehicle
Method: At 24 hours after LPS induction, bronchioalveolar fluid (BALF) was analyzed for neutrophil infiltration, and lung tissues were analyzed for cytokine expression. […].
At 24 hours after LPS induction, bronchioalveolar fluid (BALF) was analyzed for neutrophil infiltration, and lung tissues were analyzed for S100A8/MRP8, which is released by neutrophils. As previously, LPS instilled into the lungs caused a massive invasion of neutrophils into the BALF, as well as dramatic accumulation of the S100A8/MRP8. […]

SUR1-regulated channels = conditions: in vitro, low-dose; read-out: EC50, inhibition of SUR1-regulated channels; cited from earlier work
[3] = tested on: murine model of ALI induced by intranasal ovalbumin (OVA); conditions: 20 mg/kg, mice pre-sensitized to OVA; cited from earlier work
[4] = tested on: rat model of ALI induced by IV administration of oleic acid (OA); conditions: 75 mg/kg IP 1 hour before OA; cited from earlier work
[5] = tested on: mouse model of ventilator-induced lung injury (VILI); conditions: 50 mg/kg, VT=15 mL/kg; cited from earlier work
[6] = tested on: rat model of VILI with MV alone; experiment: rat model of VILI with mechanical ventilation alone; conditions: 10 μg/kg IP at start of MV, MV 4 hours (10 mL/kg), assessed at 24 hours, vs vehicle
[7] = 50 μg/kg IP at onset of MV and at 6 hours, 24 hours, vs VEH

Q: What does the source list for `COc1ccc(Cl)cc1C(=O)NCCc1ccc(S(=O)(=O)NC(=O)NC2CCCCC2)cc1` [glibenclamide]?
A: dynamic lung compliance, pressure-volume curve [1, 7]: the shift to the right was less pronounced; hemoglobin (Hgb) in lung tissues, immunoblot [1, 7]: less hemorrhagic exudate; hemorrhagic exudates, gross appearance of lungs [1, 7]: reduced hemorrhagic exudates; protein in BALF [1, 7]: the increase was less pronounced; oxygen saturation (sO2), pulse oximetry ([1]; 50 μg/kg IP at onset of MV and at 6 hours, at 24 hours, n=3): 88±4.4%; cellular infiltrates, H&E-stained lung sections ([1]; ARDS with MV, vs VEH): reduced cellular infiltrates; neutrophil invasion, immunohistochemistry for MPO ([1]; lung tissues, vs VEH): less pronounced; quantification of MPO by immunohistochemistry and immunoblot ([1]; lung tissues, vs VEH): significant reduction; NOS2 expression in lung tissues ([1]; vs VEH): attenuated; TNF expression in lung tissues ([1]; vs VEH): attenuated; MRP8/14 exocytosis (release into extracellular media) (human neutrophils; neutrophils stimulated with LPS): significantly reduced; MRP8/14 exocytosis (release into extracellular media) (human neutrophils; neutrophils stimulated with PMA): significantly reduced; IL-6 in lung tissues [2]: significant reduction; MCP-1 in lung tissues [2]: significant reduction; S100A8/MRP8 in lung tissues [2]: significant reduction; neutrophils in BALF [2]: significant reduction; IL-6 in lung tissues ([2]; listed as Glibenclamide): significant reductions; MCP-1 in lung tissues ([2]; listed as Glibenclamide): significant reductions; EC50 (SUR1-regulated channels): 0.048 µM; Th2 cytokines IL-5, IL-4 and IL-13 in BALF [3]: significantly reduced; levels of myeloperoxidase (MPO) and malondialdehyde (MDA) [4]: reduced levels; pulmonary interstitial edema, infiltration of neutrophils and mononuclear cells [4]: significantly alleviated; BALF total protein, neutrophils, IL-1β, IL-6 and KC levels [5]: reduced; pulmonary edema [5]: reduced pulmonary edema; pulmonary edema (wet weight/dry weight) [6]: significantly reduced; pulmonary edema (wet weight/dry weight) ([6]; listed as GLIB): significantly decreased pulmonary edema; pulmonary edema (wet weight/dry weight) ([6]; listed as Glibenclamide): significantly decreased pulmonary edema
